Reference: patent publication US20250145589A1, “PYRIDINE DERIVATIVE AND USE THEREOF” (SICHUAN HUIYU PHARMACEUTICAL CO., LTD., priority 2021, published 2025)

Experiments:
Assay type in all cases: cell-based
[1] = system: NCI-H358 cells (KRAS G12C mutant); test: NCI-H358 cell proliferation inhibition (CellTiter-Glo); details: Homo sapiens, NCI-H358, 72 h; H358 cells (G12C mutation), 3 days, Table 6; read-out: NCI-H358 (IC50)
[2] = system: MIA PaCa-2 cells (KRAS G12C mutant); test: MIA PaCa-2 cell anti-proliferation (CellTiter-Glo); details: Homo sapiens, 72 h; MIA Paca-2 cells, 3 days, Table 7; read-out: MIA PaCa-2 (IC50)
Summary of the method: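 Viable-cell luminescence (CellTiter-Glo, ≥30 min at 25 °C) measured after a 3-day, 37 °C exposure to compounds at 9 points, 4-fold spaced, in DMEM containing 10% FBS plus 2.5% horse serum. IC50 derived versus no-inhibitor wells.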

[3] = system: MIA PaCa-2-AMGR drug-resistant cell line; test: MIA PaCa-2-AMGR drug-resistant cell proliferation inhibitory activity test; details: 72 h, MIA PaCa-2-AMGR drug-resistant cells, 3 days incubation, CellTiter-Glo
Summary of the method: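 MIA PaCa-2 line made resistant by stepwise AMG510 exposure up to 1 μM. Cells seeded at 4×10^3/well overnight, then treated with 8 concentrations (5-fold dilutions) for 3 days at 37° C, 5% CO2 in DMEM with 10% FBS + 2.5% horse serum. Viability by CellTiter-Glo luminescence; IC50 versus no-inhibitor control.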

[4] = system: NCI-H358-AMGR drug-resistant cell line; test: NCI-H358-AMGR drug-resistant cell proliferation inhibitory activity test; details: 72 h; NCI-H358-AMGR drug-resistant cells, 3 days incubation, CellTiter-Glo
Summary of the method: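 Luminescent CellTiter-Glo read-out after 3-day, 37° C compound exposure (8 points, 5-fold series) of AMG510-resistant NCI-H358 cells plated at 4×10^3 per well.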

| Structure (SMILES) | IC50 [1] [nM] | IC50 [2] [nM] | IC50 [3] [nM] | IC50 [4] [nM] |
| --- | --- | --- | --- | --- |
| COc1ncc(-c2ccc3ncnc(N4CCN(C(=O)/C=C/C(C)=O)CC4)c3n2)cc1NS(=O)(=O)c1c(F)cncc1F [Example 210, (E)-3,5-difluoro-N-(2-methoxy-5-(4-(4-(4-oxopent-2-enoyl)piperazin-1-yl)pyrido[3,2-d]pyrimidin-6-yl)pyridin-3-yl)pyridine-4-sulfonamide] | 53.4 | 47.7 | 97.4 | 287 |
| COc1ncc(-c2ccc3ncnc(N4CCN(C(=O)/C=C/C(C)=O)CC4)c3n2)cc1NS(=O)(=O)c1cc(F)ccc1F [Example 217, (E)-2,5-difluoro-N-(2-methoxy-5-(4-(4-(4-oxopent-2-enoyl)piperazin-1-yl)pyrido[3,2-d]pyrimidin-6-yl)pyridin-3-yl) benzene-sulfonamide] | 27 | 21.1 | 21.4 | 32.1 |
| COc1ncc(-c2ccc3ncnc(N4CCN(C(=O)/C=C/C(C)=O)CC4)c3n2)cc1NS(=O)(=O)c1cccc(F)c1F [Example 218, (E)-2,3-difluoro-N-(2-methoxy-5-(4-(4-(4-oxopent-2-enoyl)piperazin-1-yl)pyrido[3,2-d]pyrimidin-6-yl)pyridin-3-yl) benzene-sulfonamide] | 25.6 | 21.5 | 16.1 | 13.5 |
| COc1ncc(-c2ccc3ncnc(N4CCN(C(=O)/C=C/C(C)=O)CC4)c3n2)cc1NS(=O)(=O)c1c(F)cc(F)cc1F [Example 219, (E)-2,4-trifluoro-N-(2-methoxy-5-(4-(4-(4-oxopent-2-enoyl)piperazin-1-yl)pyrido[3,2-d]pyrimidin-6-yl)pyridin-3-yl) benzene-sulfonamide] | 7.3 | 5.8 | 6.4 | 15.9 |
| COc1ncc(-c2ccc3ncnc(N4CCN(C(=O)/C=C/C(C)=O)CC4)c3n2)cc1NS(=O)(=O)c1ccncc1F [Example 220, (E)-3-fluoro-N-(2-methoxy-5-(4-(4-(4-oxopent-2-enoyl)piperazin-1-yl)pyrido[3,2-d]pyrimidin-6-yl)pyridin-3-yl) pyridine-4-sulfonamide] | 61.5 | 58.5 | 212 | 207 |
| COc1ncc(-c2ccc3ncnc(N4CCN(C(=O)/C=C/C(C)=O)CC4)c3n2)cc1NS(=O)(=O)c1c(Cl)cncc1Cl [Example 224, (E)-3,5-dichloro-N-(2-methoxy-5-(4-(4-(4-oxopent-2-enoyl)piperazin-1-yl)pyrido[3,2-d]pyrimidin-6-yl)pyridin-3-yl) pyridine-4-sulfonamide] | 88.1 | 79.3 | 144 | 220 |
| COc1ncc(-c2ccc3ncnc(N4CCN(C(=O)/C=C/C(C)=O)CC4)c3n2)cc1NS(=O)(=O)c1c(F)cccc1Cl [Example 225, (E)-2-chloro-6-fluoro-N-(2-methoxy-5-(4-(4-(4-oxopent-2-enoyl)piperazin-1-yl)pyrido[3,2-d]pyrimidin-6-yl)pyridin-3-yl) benzene-sulfonamide] | 13.5 | 15.6 | 26 | 34.9 |
| COc1ncc(-c2ccc3ncnc(N4CCN(C(=O)/C=C/C(C)=O)[C@H](C)C4)c3n2)cc1NS(=O)(=O)c1ccccc1F [Example 228, (R,E)-2-fluoro-N-(2-methoxy-5-(4-(3-methyl-4-(4-oxopent-2-enoyl)piperazin-1-yl)pyrido[3,2-d]pyrimidin-6-yl)pyridin-3-yl)benzene-sulfonamide] | 13.2 | 34 | 13.5 | 40.3 |
| COc1ncc(-c2ccc3ncnc(C4CCN(C(=O)/C=C/C(C)=O)CC4)c3n2)cc1NS(=O)(=O)c1sc(C)nc1C [Example 230, (E)-N-(2-methoxy-5-(4-(1-(4-oxopent-2-enoyl)piperidin-4-yl)pyrido[3,2-d]pyrimidin-6-yl)pyridin-3-yl)-2,4-dimethylthiazol-5-sulfonamide] | 6.9 | 24.2 | 35.3 | 26.7 |
| COc1ncc(-c2ccc3ncnc(C4CCN(C(=O)/C=C/C(C)=O)CC4)c3n2)cc1NS(=O)(=O)c1c(F)cc(F)cc1F [Example 231, (E)-2,4,6-trifluoro-N-(2-methoxy-5-(4-(1-(4-oxopent-2-enoyl)piperidin-4-yl)pyrido[3,2-d]pyrimidin-6-yl)pyridin-3-yl)benzenesulfonamide] | 3.7 | 13.2 | 3.6 | 21.6 |
| COc1ncc(-c2ccc3ncnc(C4CCN(C(=O)/C=C/C(C)=O)CC4)c3n2)cc1NS(=O)(=O)c1ccccc1F [Example 232, (E)-2-fluoro-N-(2-methoxy-5-(4-(1-(4-oxopent-2-enoyl)piperidin-4-yl)pyrido[3,2-d]pyrimidin-6-yl)pyridin-3-yl)benzenesulfonamide] | 8.7 | 17.7 | 9 | 44 |
| COc1ncc(-c2ccc3ncnc(C4CCN(C(=O)/C=C/C(C)=O)CC4)c3n2)cc1NS(=O)(=O)c1c(F)cccc1F [Example 233, (E)-2,6-difluoro-N-(2-methoxy-5-(4-(1-(4-oxopent-2-enoyl)piperidin-4-yl)pyrido[3,2-d]pyrimidin-6-yl)pyridin-3-yl)benzenesulfonamide] | 5 | 14.2 | 16.7 | 52 |
| COc1ncc(-c2ccc3ncnc(C4CCN(C(=O)/C=C/C(C)=O)CC4)c3n2)cc1NS(=O)(=O)c1ccc(F)cc1F [Example 234, (E)-2,4-difluoro-N-(2-methoxy-5-(4-(1-(4-oxopent-2-enoyl)piperidin-4-yl)pyrido[3,2-d]pyrimidin-6-yl)pyridin-3-yl)benzenesulfonamide] | 5.5 | 14.9 | 5.3 | 58.2 |
